From patent publication USRE38551E1, “Anticonvulsant enantiomeric amino acid derivatives” (priority 1996, dated 2004) come the findings set out here.

A value given as a limit tells only on which side of the number the result lay.

The subject of data set [1] is maximal electroshock (MES) induced seizure. Put plainly: maximal electroshock (MES) seizure test, mice (ip). Type of data set: in vivo. To be noted: for PI protective index (TD50/MES ED50) / MES, ED50: mice; for PI protective index (TD50/MES ED50) / MES, ED50 / ED50: ip; for MES, ED50: at time of peak effect (hours in brackets); for ED50: Mus musculus. The text has this: (§1) Compounds were screened for anticonvulsant activity in both male albino Carthworth Farms No. 1 mice (ip route) and male albino Sprague Dawley rats [oral (po) route]. Activity was established using the electrical (maximal electroshock or MES) test. In the MES test, a drop of electrolyte solution with anesthetic (0.5% butacaine hemisulfate in 0.9% sodium chloride) was used in the eyes of the animals prior to positioning the corneal electrodes and delivery of current. […] Protection endpoints were defined as the abolition of the hind limb tonic extensor component of the induced seizure. In mice, effects of compounds on forced spontaneous motor activity were determined using the rotorod test. […] Normally under these conditions, mice maintain their balance almost indefinitely. In rats, motor impairment is assessed by observing for overt evidence of ataxia, abnormal gait and stance, and/or loss of placing response and muscle tone. In the mouse identification screening study all compounds were given at three dose levels (30, 100, 300 mg/kg) and two time periods (0.5 hours, 4 hours). Typically, in the MES seizures test one animal was tested at 30 mg/kg and 300 mg/kg, and three animals at 100 mg/kg. In the rotored toxicity test four animals were tested at 30 mg/kg, and 300 mg/kg, and eight animals at 100 mg/kg.
(§2) The quantitative determination of the median effective (ED50) and toxic doses (TD50) was conducted at previously calculated times of peak effect. Groups of at least eight animals were tested using different doses of test compound until at least two points wee determined between 100 and 0% protection and minimal motor impairment.

Data set [2] shares this test system. Put plainly: maximal electroshock (MES) seizure test, rats (po). To be noted: for PI protective index (TD50/MES ED50) / MES, ED50 / ED50: po. Type of data set: in vivo.
Text: as §1, §2

Data set [3] concerns motor impairment (rotorod test). The data set is described as follows: rotorod neurologic toxicity test, mice (ip). Type of data set: in vivo. Particulars: mice, ip, rotorod test, at time of peak effect.
Text: as §1
(§3) The quantitative determination of the median effective (ED50) and toxic doses (TD50) was conducted at previously calculated times of peak effect. Groups of at least eight animals were tested using different doses of test compound until at least two points wee determined between 100 and 0% protection and minimal motor impairment. The dose of candidate substance required to produce the defined end-point in 50% of the animals in each test and the 95% confidence interval was calculated.

Data set [4] in a line: motor impairment (ataxia, gait, stance) observation, rats (po). Type of data set: in vivo. Particulars: male, Sprague Dawley, in vivo, rat; for TD50: po, at time of peak effect, read-out: tox, TD50.
Text: (§4) Compounds were screened for anticonvulsant activity in both male albino Carthworth Farms No. 1 mice (ip route) and male albino Sprague Dawley rats [oral (po) route]. Activity was established using the electrical (maximal electroshock or MES) test. In the MES test, a drop of electrolyte solution with anesthetic (0.5% butacaine hemisulfate in 0.9% sodium chloride) was used in the eyes of the animals prior to positioning the corneal electrodes and delivery of current. A 60 cycle alternating current was administered for 0.2 sec. in both species, 50 mA in mice and 150 mA in rats. Protection endpoints were defined as the abolition of the hind limb tonic extensor component of the induced seizure. In mice, effects of compounds on forced spontaneous motor activity were determined using the rotorod test. […] Normally under these conditions, mice maintain their balance almost indefinitely. In rats, motor impairment is assessed by observing for overt evidence of ataxia, abnormal gait and stance, and/or loss of placing response and muscle tone. In the mouse identification screening study all compounds were given at three dose levels (30, 100, 300 mg/kg) and two time periods (0.5 hours, 4 hours). Typically, in the MES seizures test one animal was tested at 30 mg/kg and 300 mg/kg, and three animals at 100 mg/kg. In the rotored toxicity test four animals were tested at 30 mg/kg, and 300 mg/kg, and eight animals at 100 mg/kg.
as §3

Data set [5] can be described thus: rotorod neurologic toxicity test, mice (ip). Type of data set: in vivo. To be noted: male, ip; for TD50: Carthworth Farms No. 1, mouse, in vivo, mice, rotorod test, at time of peak effect, read-out: tox, TD50.
Text: as §1, §3

Data set [6] has as its system maximal electroshock (MES) induced seizure. Put plainly: 5-day chronic treatment tolerance study (MES test). Type of data set: in vivo. Particulars: rats, 5 daily doses of 48 mg/kg. As to the method:
Compound C, i.e., N-acetyl-D, L-phenylglycine N-benzylamide was subjected to 5-day chronic treatment on anticonvulsant activity (maximal electroshock). 3 groups of 8 animals each were treated as follows. One group was given the MES ED50 of the test drug for 5 days; the second group was given the requisite volume of the vehicle (0.04 ml/10 g body wt.) for 4 days and a single dose (MES ED50) of the test drug on day 5; and the third group was given the requisite volume of the vehicle daily for 5 days. At the time of peak effect of the candidate substance on day 5, all groups were subjected to the MES test and the number of animals protected recorded. Seizure components of the unprotected animals were timed to the nearest 10th of a second and the extensor/flexor (E/F) ratio, S.E., and p value determined. Since extensor duration decreases and flexor duration increases as a maximal seizure is attenuated, the E/F ratio provides a measure of seizure severity.

The next data set has as its system liver microsomal system. The data set is described as follows: 7-day liver microsomal studies. Type of data set: in vivo, rats. The protocol: Two of the three groups of animals subjected to the hexobarbital sleep time test (chronically treated and vehicle control groups) were continued on their respective original treatment regimen for two days (days 6 and 7) and 24 hours later (day 8) subjected to liver microsomal studies. The rats were decapitated and the livers perfused with 0.9% sodium chloride solution. The livers were removed, weighed, and homogenized in 0.25M sucrose. Microsomes were prepared and their drug metabolizing capabilities (microsomal protein yield; cytochrome P-450 concentration; p-nitroanisole O-demethylase and NADPH cytochrome c reductase activities; norbenzphetamine MI complex formation; and glucuronyl transferase, erythromycin demethylase, and ethylmorphine demethylase activities) measured (Arch. Biochem. Biophys. 143: 318-329, 1971).

For another data set, the system named is hexobarbital sleep time. The data set is described as follows: hexobarbital sleep time test. Type of data set: in vivo. To be noted: rats, 5 daily doses of 48 mg/kg. The protocol:
All rats subjected to the 5-day tolerance studies were maintained in their home cage for 24 hours and then subjected to the hexobarbital sleep time test (day 6). Each rat in each of the 3 groups was given 100 mg/kg of hexobarbital (i.p.) and the sleep time measured to the nearest minute. The mean sleep time and S.E. for each group were calculated.

A further data set has as its system motor impairment. The data set is described as follows: motor impairment (ataxia, gait, stance) observation, rats (po). Type of data set: in vivo. Particulars: rat, po, at time of peak effect.
Text: as §4, §3

[7] abbreviates: rat, at time of peak effect, read-out: MES, ED50.
Setting [8] is: liver microsomes, rats, p.o., 48 mg/kg, Treated 7 Days.
Setting [9] is: rats, p.o., 48 mg/kg, Treated 7 Days.

On to `CC(=O)N[C@H](C)C(=O)NCc1ccccc1` [compound 2, N-Acetyl-D-alanine-N′-benzylamide], for which the “PI protective index (TD50/MES ED50)” value in data set [1] is reported as 3.9; in data set [2] (rat), above 35.2. For the same molecule, the “MES, ED50” value in data set [1] was 54.8 [0.5] mg/kg; in data set [2] (rat, at time of peak effect), 28.4 [4] mg/kg. The “tox, TD50” value in [3] was 2.14 [0.5] mg/kg.
For `CC(=O)N[C@H](C(=O)NCc1ccccc1)c1ccco1` [compound 7, (L)-(+)-α-Acetamido-N-benzyl-2-furanacetamide], in data set [1], the “MES, ED50” value is above 25. mg/kg. Besides, the “tox, TD50” value in [3] was above 200 mg/kg.
For `COC(NC(C)=O)C(=O)NCc1ccccc1` (racemic) [compound 4, D,L-2-Acetamido-N-benzyl-2-methoxyacetamide], the “MES, ED50” value in data set [1] came to 98.30 mg/kg.
As to `CC(=O)N[C@H](CO)C(=O)NCc1ccccc1` [compound 12, (R)-N-Benzyl 2-Acetamidohydracylamide], in [1], the “PI protective index (TD50/MES ED50)” value was above 9.4 and the “MES, ED50” value is 53.4 [2] mg/kg. In addition, in data set [3], the “tox, TD50” value is >500 [2] mg/kg.
Consider `COC[C@H](NC(C)=O)C(=O)NCc1ccccc1` [compound 11, (S)-N-Benzyl 2-Acetamido-3-methoxypropionamide], for which the ED50 was 100 to 300 mg/kg in data set [1] (read-out: MES, ED50) and above 30 mg/kg in [2] (setting [7]). Also, the TD50 in [4] was above 30 mg/kg; in data set [5], above 300 mg/kg.
For the molecule `CC(=O)NC(C(=O)NCc1ccccc1)c1ccccc1` (racemic) [compound 13, N-Acetyl-D,L-phenylglycine-N-benzylamide], the “effect of chronic treatment on anticonvulsant activity” value in [6] was “does not affect”. The ED50 in data set [1] (read-out: MES, ED50) was 20.3 mg/kg; in data set [1] (read-out: MOUSE anticonvulsant dose ED50 MES), 20.3 mg/kg; in data set [4] (oral (Table 6), read-out: RAT ED50 Neurotox) it was above 1000 mg/kg; in data set [2] (Rattus norvegicus, read-out: RAT anticonvulsant ED50 MES), 48.3 mg/kg; in data set [2] (Rattus norvegicus, Rats, p.o., TPE 4 hrs (Table 4 head), read-out: ED50), 48 mg/kg; in data set [2] (setting [7]), 48.3 mg/kg. Besides, the ED50 in data set [5] (Carthworth Farms No. 1, in vivo, mouse, i.p., rotorod test at peak effect (Table 6), read-out: MOUSE ED50 Neurotox) came out at 96.9 mg/kg. Further, the “PI protective index (TD50/MES ED50)” value was 4.77 in data set [1] and above 20.7 in [2] (rat). The “Ratio to MES” value in [1] (mouse, i.p., Neurotox/MES (Table 6)) was 4.8; in data set [2] (rat, oral, Neurotox/MES (Table 6)) it was 20.7. The values for the TD50 in data set [4] and in data set [5] were above 1000 mg/kg and 96.9 mg/kg, respectively. In the data set with liver microsomal system (setting [8]), the “Cytochrome P-450” value amounted to 0.71 ± 0.06 nmol/mg. Further, the Erythromycin demethylase in the data set with liver microsomal system (setting [8]) turned out to be 0.64 ± 0.07 nmol/mg/min. For the same molecule, the Ethylmorphine demethylase with liver microsomal system (setting [8]) came to 6.75 ± 0.37 nmol/mg/min. Further, the “Glucoronyl Transferase” value in the data set with liver microsomal system (setting [8]) came out at 9.77 ± 0.23 nmol/mg/min. Moreover, the “NADPH Cytochrome c reductase” value in the data set on liver microsomal system (setting [8]) amounted to 160.3 ± 5.2 nmol/mg/min. The “Norbenzphetamine MI Complex” value in the data set on liver microsomal system (setting [8]) is 0.023 ± 0.003 nmol/mg/min. Also, the “Total Protein” value in the data set on liver microsomal system (setting [8]) amounted to 31.7 ± 1.4 mg. Moreover, in the data set with liver microsomal system (setting [8]), the “p-nitroanisole O-demethylase” value came out at 0.82 ± 0.12 nmol/mg/min. Further, the “Liver Pathology Report” value with liver microsomal system (rat, oral, 48 mg/kg/day × 7 days) is “liver enzyme induction”. Also, the “Safety Ratio daily dose; MES” value with liver microsomal system (rat, oral, 48 mg/kg/day × 7 days vs oral MES ED50) is given as −1. The “induction of liver microsomal enzyme systems” value with liver microsomal system (rats, chronic administration, 48 mg/kg, 7 days) is “induces some liver microsomal enzyme systems”. Further, in the data set with liver microsomal system (setting [9]), the “Body Weight” value came out at 146.3 ± 3.8 g. Besides, the “Liver Weight” value in the data set with liver microsomal system (setting [9]) came out at 8.54 ± 0.26 g. In addition, the “effect of chronic treatment on hexobarbital sleep time” value with hexobarbital sleep time was “does not affect”.
In the case of `CC(=O)NC(C(=O)NCc1ccccc1)c1ccco1` (stereo not drawn) [compound 5, (D,L)-α-Acetamido-N-benzyl-2-furanacetamide], in data set [1], the “PI protective index (TD50/MES ED50)” value is reported as above 3.9 and the “MES, ED50” value came to 10.3 mg/kg. In addition, the “tox, TD50” value in data set [3] is given as “˜40 mg/kg”.
As for `CC(=O)N[C@@H](C)C(=O)NCc1ccccc1` [compound 3, N-Acetyl-L-alanine-N′-benzylamide], in [1], the “PI protective index (TD50/MES ED50)” value was determined as 1.5 and the “MES, ED50” value is 548 [0.5] mg/kg. In data set [3], the “tox, TD50” value is 841 [0.5] mg/kg.
For `COC[C@@H](NC(C)=O)C(=O)NCc1cccc(F)c1` [Ex. 3, R-N-(3-Fluorobenzyl)2-Acetamide-3-Methoxypropionamide], the figures for the “PI protective index (TD50/MES ED50)” value in [1] and in data set [2] (rat) were 6.7 and above 57.7, respectively. For the same molecule, the “MES, ED50” value in data set [1] is 6.9 [0.25] mg/kg; in data set [2] (rat, at time of peak effect), 6.9 [0.5] mg/kg. Also, the entries for the “tox, TD50” value (in the data set with motor impairment; in [3]) were >396 [0.5] mg/kg and 46.3 [0.25] mg/kg, respectively.
As to `COCC(NC(C)=O)C(=O)NCc1ccccc1` (racemic) [compound 9, N-Benzyl 2-Acetamido-3-methoxypropionamide(racemic mixture)], in the data set on motor impairment, the “tox, TD50” value was 386.8 [1] mg/kg.
